In US20080221060A1, “Therapeutic Compounds” (priority 2004, published 2008):

These compounds were tested against adenosine receptors (rat striatal membranes, [3H]-CGS21680) (Rattus norvegicus, UniProt P30543) (assay: Ki from displacement of [3H]-CGS21680 in rat striatal membranes at pH 5.5 and pH 7.4). Conditions: (Ki) nM (pH 5.5), pH 5.5; 2 nM [3H]-CGS21680, 90 minutes at 22° C.
Assay type: binding
Set-up: from tissue; host or cells: rat striatum (membranes)

Sequence of adenosine receptors (rat striatal membranes, [3H]-CGS21680) (P30543 whole entry): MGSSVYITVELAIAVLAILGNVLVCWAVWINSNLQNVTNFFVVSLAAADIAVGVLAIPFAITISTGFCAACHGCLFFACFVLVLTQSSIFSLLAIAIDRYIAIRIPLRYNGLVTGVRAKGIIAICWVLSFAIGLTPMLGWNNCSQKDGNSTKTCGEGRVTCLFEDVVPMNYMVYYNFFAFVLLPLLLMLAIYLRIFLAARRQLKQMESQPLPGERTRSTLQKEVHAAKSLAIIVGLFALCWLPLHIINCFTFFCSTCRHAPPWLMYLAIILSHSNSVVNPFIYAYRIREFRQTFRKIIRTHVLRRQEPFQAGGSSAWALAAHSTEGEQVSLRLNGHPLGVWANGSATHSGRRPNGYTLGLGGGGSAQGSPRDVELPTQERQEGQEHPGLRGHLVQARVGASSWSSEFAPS

Row | SMILES | Ki
1 | CN(C)c1ncnc2c1ncn2[C@@H]1O[C@H](CO)[C@@H](O)[C@H]1O [Compound 41] | 42 nM

Same assay, conditions: (Ki) nM (pH 7.4), pH 7.4; 2 nM [3H]-CGS21680, 90 minutes at 22° C.

Row | SMILES | Ki
2 | CN(C)c1ncnc2c1ncn2[C@@H]1O[C@H](CO)[C@@H](O)[C@H]1O [Compound 41] | 450000 nM

Same assay, conditions: pH 5.5; 2 nM [3H]-CGS21680, 90 minutes at 22° C.; read-out: (Ki) nM (pH 5.5)

Row | Ki | SMILES
3 | 145 nM | CCCC(=O)NC[C@H]1O[C@@H](n2cnc3c(N)ncnc32)[C@H](O)[C@@H]1O [Compound 55]
4 | 100 nM | CCS(=O)(=O)c1nc(N)c2ncn([C@@H]3O[C@H](CO)[C@@H](O)[C@H]3O)c2n1 [Compound 33]
5 | 7 nM | CN(Cc1ccccc1)c1ncnc2c1ncn2[C@@H]1O[C@H](CO)[C@@H](O)[C@H]1O [Compound 43]
6 | 5 nM | Nc1nc(Nc2ccccc2)nc2c1ncn2[C@@H]1O[C@H](CO)[C@@H](O)[C@H]1O [Compound 26, 2-phenylamino adenosine]
7 | 26 nM | CC(C)CCN(C)c1nc(N)c2ncn([C@@H]3O[C@H](CO)[C@@H](O)[C@H]3O)c2n1 [Compound 31]
8 | 16 nM | Nc1nc(Oc2cc(F)ccc2F)nc2c1ncn2[C@@H]1O[C@H](CO)[C@@H](O)[C@H]1O [Compound 9]
9 | 3.8 nM | CN(Cc1cccc(C(F)(F)F)c1)c1ncnc2c1ncn2[C@@H]1O[C@H](CO)[C@@H](O)[C@H]1O [Compound 45]
10 | 16 nM | Nc1nc(Oc2ccc(F)cc2F)nc2c1ncn2[C@@H]1O[C@H](CO)[C@@H](O)[C@H]1O [Compound 10]
11 | 3 nM | COc1ccc(Nc2nc(N)c3ncn([C@@H]4O[C@H](CO)[C@@H](O)[C@H]4O)c3n2)cc1 [Compound 27, 2-(4-methoxyphenylamino) adenosine]
12 | 16 nM | CC(C)c1cccc(Oc2nc(N)c3ncn([C@@H]4O[C@H](CO)[C@@H](O)[C@H]4O)c3n2)c1 [Compound 18]
13 | 9 nM | NC(=O)[C@H]1O[C@@H](n2cnc3c(N)ncnc32)[C@H](O)[C@@H]1O [Compound 50]
14 | 12 nM | Nc1nc(Oc2ccc3c(c2)CCC3)nc2c1ncn2[C@@H]1O[C@H](CO)[C@@H](O)[C@H]1O [Compound 17]
15 | 11 nM | CCCCOc1nc(N)c2ncn([C@@H]3O[C@H](CO)[C@@H](O)[C@H]3O)c2n1 [Compound 4]
16 | 13 nM | COCCN(C)c1ncnc2c1ncn2[C@@H]1O[C@H](CO)[C@@H](O)[C@H]1O [Compound 47]
17 | 29 nM | CN(Cc1cccc(Br)c1)c1ncnc2c1ncn2[C@@H]1O[C@H](CO)[C@@H](O)[C@H]1O [Compound 44]
18 | 4 nM | Nc1nc(OCCO)nc2c1ncn2[C@@H]1O[C@H](CO)[C@@H](O)[C@H]1O [Compound 34, 2-(β-hydroxyethoxy)-adenosine]
19 | 39 nM | CC(C)CCNc1ncnc2c1ncn2[C@@H]1O[C@H](C(=O)NC(C)C)[C@@H](O)[C@H]1O [Compound 52]
20 | 10 nM | Nc1nc(Nc2ccc(F)cc2)nc2c1ncn2[C@@H]1O[C@H](CO)[C@@H](O)[C@H]1O [Compound 28]
21 | 29 nM | CC[C@H](C)Nc1nc(N)c2ncn(C3OC(CO)C(O)C3O)c2n1 (some centres unmarked) [Compound 23]
22 | 5 nM | CC(C)NC(=O)[C@H]1O[C@@H](n2cnc3c(N)ncnc32)[C@H](O)[C@@H]1O [Compound 49]
23 | 2.6 nM | CN(C)c1nc(NC2CCCCC2)nc2c1ncn2[C@@H]1O[C@H](CO)[C@@H](O)[C@H]1O [Compound 57]
24 | 11 nM | Nc1nc(OC2CC(F)(F)C2(F)F)nc2c1ncn2[C@@H]1O[C@H](CO)[C@@H](O)[C@H]1O (some centres unmarked) [Compound 35]
25 | 17 nM | Nc1nc(OCC(F)F)nc2c1ncn2[C@@H]1O[C@H](CO)[C@@H](O)[C@H]1O [Compound 2]
26 | 2 nM | Nc1nc(NC2CCCC2)nc2c1ncn2[C@@H]1O[C@H](CO)[C@@H](O)[C@H]1O [Compound 29]

Same assay, conditions: pH 7.4; 2 nM [3H]-CGS21680, 90 minutes at 22° C.; read-out: (Ki) nM (pH 7.4)

Row | Ki | SMILES
27 | 16900 nM | CCCC(=O)NC[C@H]1O[C@@H](n2cnc3c(N)ncnc32)[C@H](O)[C@@H]1O [Compound 55]
28 | 39000 nM | CCS(=O)(=O)c1nc(N)c2ncn([C@@H]3O[C@H](CO)[C@@H](O)[C@H]3O)c2n1 [Compound 33]
29 | 18500 nM | CN(Cc1ccccc1)c1ncnc2c1ncn2[C@@H]1O[C@H](CO)[C@@H](O)[C@H]1O [Compound 43]
30 | 160 nM | Nc1nc(Nc2ccccc2)nc2c1ncn2[C@@H]1O[C@H](CO)[C@@H](O)[C@H]1O [Compound 26, 2-phenylamino adenosine]
31 | 4000 nM | CC(C)CCN(C)c1nc(N)c2ncn([C@@H]3O[C@H](CO)[C@@H](O)[C@H]3O)c2n1 [Compound 31]
32 | 2500 nM | Nc1nc(Oc2cc(F)ccc2F)nc2c1ncn2[C@@H]1O[C@H](CO)[C@@H](O)[C@H]1O [Compound 9]
33 | 20000 nM | CN(Cc1cccc(C(F)(F)F)c1)c1ncnc2c1ncn2[C@@H]1O[C@H](CO)[C@@H](O)[C@H]1O [Compound 45]
34 | 6400 nM | Nc1nc(Oc2ccc(F)cc2F)nc2c1ncn2[C@@H]1O[C@H](CO)[C@@H](O)[C@H]1O [Compound 10]
35 | 55 nM | COc1ccc(Nc2nc(N)c3ncn([C@@H]4O[C@H](CO)[C@@H](O)[C@H]4O)c3n2)cc1 [Compound 27, 2-(4-methoxyphenylamino) adenosine]
36 | 560 nM | CC(C)c1cccc(Oc2nc(N)c3ncn([C@@H]4O[C@H](CO)[C@@H](O)[C@H]4O)c3n2)c1 [Compound 18]
37 | 270 nM | NC(=O)[C@H]1O[C@@H](n2cnc3c(N)ncnc32)[C@H](O)[C@@H]1O [Compound 50]
38 | 760 nM | Nc1nc(Oc2ccc3c(c2)CCC3)nc2c1ncn2[C@@H]1O[C@H](CO)[C@@H](O)[C@H]1O [Compound 17]
39 | 280 nM | CCCCOc1nc(N)c2ncn([C@@H]3O[C@H](CO)[C@@H](O)[C@H]3O)c2n1 [Compound 4]
40 | 13000 nM | COCCN(C)c1ncnc2c1ncn2[C@@H]1O[C@H](CO)[C@@H](O)[C@H]1O [Compound 47]
41 | 7500 nM | CN(Cc1cccc(Br)c1)c1ncnc2c1ncn2[C@@H]1O[C@H](CO)[C@@H](O)[C@H]1O [Compound 44]
42 | 203 nM | Nc1nc(OCCO)nc2c1ncn2[C@@H]1O[C@H](CO)[C@@H](O)[C@H]1O [Compound 34, 2-(β-hydroxyethoxy)-adenosine]
43 | 1300 nM | CC(C)CCNc1ncnc2c1ncn2[C@@H]1O[C@H](C(=O)NC(C)C)[C@@H](O)[C@H]1O [Compound 52]
44 | 200 nM | Nc1nc(Nc2ccc(F)cc2)nc2c1ncn2[C@@H]1O[C@H](CO)[C@@H](O)[C@H]1O [Compound 28]
45 | 1400 nM | CC[C@H](C)Nc1nc(N)c2ncn(C3OC(CO)C(O)C3O)c2n1 (some centres unmarked) [Compound 23]
46 | 1930 nM | CC(C)NC(=O)[C@H]1O[C@@H](n2cnc3c(N)ncnc32)[C@H](O)[C@@H]1O [Compound 49]
47 | 18000 nM | CN(C)c1nc(NC2CCCCC2)nc2c1ncn2[C@@H]1O[C@H](CO)[C@@H](O)[C@H]1O [Compound 57]
48 | 220 nM | Nc1nc(OC2CC(F)(F)C2(F)F)nc2c1ncn2[C@@H]1O[C@H](CO)[C@@H](O)[C@H]1O (some centres unmarked) [Compound 35]
49 | 780 nM | Nc1nc(OCC(F)F)nc2c1ncn2[C@@H]1O[C@H](CO)[C@@H](O)[C@H]1O [Compound 2]
50 | 420 nM | Nc1nc(NC2CCCC2)nc2c1ncn2[C@@H]1O[C@H](CO)[C@@H](O)[C@H]1O [Compound 29]
